Read-outs that look alike come from different tables or passages of the source.
How the values were obtained:
Assay in all cases: NCI human tumor cell line panel growth inhibition
Type in all cases: cell-based
[1] = system: CAKI-1 renal cancer cells; conditions: Homo sapiens; CAKI-1, renal cancer; read-out: Log10 GI50 (converted)
786-0 renal cancer cells = conditions: read-out: Log10 GI50 (converted)
UACC-257 melanoma cells = conditions: Homo sapiens, read-out: Log10 GI50 (converted)
U251 CNS cancer cells = conditions: Homo sapiens, U-251, read-out: Log10 GI50 (converted)
[2] = system: MDA-N breast cancer cells; conditions: read-out: Log10 GI50 (converted)
Text: (§1) The cytotoxic activity of the present polythiophene compounds have been measured utilizing three different assays or screens. The first screen measures the cytotoxicity against a panel of sixty different human tumor cell lines. This assay provides data regarding the general cytotoxicity of an individual compound. In particular this type of assay is useful in identifying compounds which have enhanced cytotoxic activity against slow growing tumors as compared to faster growing tumor cells such as leukemia tumor cell lines. The identification of such compounds is critical since previously identified antitumor agents have low cytotoxic activity against slower growing tumors. […] The specificity of a cytotoxic compound for tumor cell lines relative to normal cells is an important characteristic of an effective antitumor agent.
(§2) The length of a bar is indicative of differential cytotoxicity against a specific type of tumor cells or tumor panels.
(§3) The antitumor cytotoxicity of the thiophene compounds tested in the first two in vitro assays was measured by a microculture assay using either 3-(4,5-dimethylthiazol-2-yl)-2,5-diphenyltetrazolium bromide (MTT) or sulforhodamine B (SRB). [M. R. Boyd in "Principles and Practices of Oncology," V. T. DeVita, Jr., S. Hellman and S. A. Rosenberg (Eds.), Vol. 3, PPO Updates, Number 10, 1989.] This assay has an advantage over in vivo assay in that results are obtained within a week as opposed to several months. The assay was carried out in 96-well microtiter plates. The MTT assay is based on the production of a dark blue formazan product by dehydrogenase in the mitochondria of live tumor cells after exposure to drug for 6 days [M. C. Alley, D. A. Scudiero, A. Monks, M. L. Hursey, M. J. Czerwinski, D. L. Fine, B. J. Abbott, J. G. Mayo, R. H. Shoemaker and M. R. Boyd, Cancer Res., 48, 589, 1988.] Thus, only live cells are stained and can be measured at 570 nm. The SRB assay is based on the binding of the anionic group to the basic amino acid residues of cellular proteins after exposure of tumor cells to drug for 2 days [P. Skehan, R. Storeng, D. Scudiero, A. Monks, J. McMahon, D. Vistica, J. T. Warren, H. Bohesch, S. Kenney and M. R. Boyd, J. Nat. Cancer Inst., 82, 1107, 1990.] Thus, the total protein (viability) can be measured at 564 nm.

[3] = system: DU-145 prostate cancer cells; conditions: read-out: Log10 GI50 (converted)
Text: as §1, §2, §3

MCF7 breast cancer cells = conditions: read-out: Log10 GI50 (converted)
Text: as §1, §2, §3

SK-MEL-5 melanoma cells = conditions: read-out: Log10 GI50 (converted)
Text: as §1, §2, §3

HOP-92 lung cancer cells = conditions: Homo sapiens, read-out: Log10 GI50 (converted)
Text: as §1, §2, §3

[4] = system: PC-3 prostate cancer cells; conditions: read-out: Log10 GI50 (converted)
Text: as §1, §2, §3

KM12 colon cancer cells = conditions: Homo sapiens, read-out: Log10 GI50 (converted)
Text: as §1, §2, §3

SK-MEL-28 melanoma cells = conditions: read-out: Log10 GI50 (converted)
Text: as §1, §2, §3

[5] = system: MDA-MB-231/ATCC breast cancer cells; conditions: read-out: Log10 GI50 (converted)
Text: as §1, §2, §3

[6] = system: OVCAR-4 ovarian cancer cells; conditions: Homo sapiens, read-out: Log10 GI50 (converted)
Text: as §1, §2, §3

[7] = system: RXF-393 renal cancer cells; conditions: Homo sapiens, read-out: Log10 GI50 (converted)
[8] = system: NCI-H322M lung cancer cells; conditions: Homo sapiens, read-out: Log10 GI50 (converted)
SF-268 CNS cancer cells = conditions: read-out: Log10 GI50 (converted)
MALME-3M melanoma cells = conditions: read-out: Log10 GI50 (converted)
HT29 colon cancer cells = conditions: Homo sapiens, HT-29, read-out: Log10 GI50 (converted)
[9] = system: HCT-116 colon cancer cells; conditions: Homo sapiens, read-out: Log10 GI50 (converted)
[10] = system: IGROV-1 ovarian cancer cells; conditions: Homo sapiens, read-out: Log10 GI50 (converted)
A-498 renal cancer cells = conditions: Homo sapiens, A498, read-out: Log10 GI50 (converted)
[11] = system: SW-620 colon cancer cells; conditions: Homo sapiens, read-out: Log10 GI50 (converted)
Description: (§4) The first screen measures the cytotoxicity against a panel of sixty different human tumor cell lines. This assay provides data regarding the general cytotoxicity of an individual compound.
as §2, §3

[12] = system: OVCAR-8 ovarian cancer cells; conditions: Homo sapiens, read-out: Log10 GI50 (converted)
Description: as §4, §2, §3

HOP-62 lung cancer cells = conditions: Homo sapiens, read-out: Log10 GI50 (converted)
SNB-19 CNS cancer cells = conditions: Homo sapiens, read-out: Log10 GI50 (converted)
[13] = system: NCI-H23 lung cancer cells; conditions: read-out: Log10 GI50 (converted)
M-14 melanoma cells = conditions: M14, read-out: Log10 GI50 (converted)
[14] = system: OVCAR-5 ovarian cancer cells; conditions: Homo sapiens, read-out: Log10 GI50 (converted)
[15] = system: OVCAR-3 ovarian cancer cells; conditions: Homo sapiens; OVCAR-3, ovarian cancer; read-out: Log10 GI50 (converted)
[16] = system: NCI-H460 lung cancer cells; conditions: Homo sapiens, read-out: Log10 GI50 (converted)
[17] = system: T-47D breast cancer cells; conditions: T47D, read-out: Log10 GI50 (converted)
Description: The assay was carried out in 96-well microtiter plates. The MTT assay is based on the production of a dark blue formazan product by dehydrogenase in the mitochondria of live tumor cells after exposure to drug for 6 days [M. C. […] The SRB assay is based on the binding of the anionic group to the basic amino acid residues of cellular proteins after exposure of tumor cells to drug for 2 days [P. Skehan, R. Storeng, D. Scudiero, A. Monks, J. McMahon, D. Vistica, J. T. Warren, H. Bohesch, S. Kenney and M. R. Boyd, J. Nat.

[18] = system: HCC-2998 colon cancer cells; conditions: Homo sapiens, read-out: Log10 GI50 (converted)
SF-295 CNS cancer cells = conditions: read-out: Log10 GI50 (converted)
TK-10 renal cancer cells = conditions: Homo sapiens, read-out: Log10 GI50 (converted)
SNB-75 CNS cancer cells = conditions: Homo sapiens, read-out: Log10 GI50 (converted)
[19] = system: HCT-15 colon cancer cells; conditions: Homo sapiens, read-out: Log10 GI50 (converted)
[20] = system: COLO-205 colon cancer cells; conditions: Homo sapiens
DLD-1 colon cancer cells = conditions: Homo sapiens, read-out: Log10 GI50 (converted)
[21] = system: SK-OV-3 ovarian cancer cells; conditions: Homo sapiens, read-out: Log10 GI50 (converted)
SK-MEL-2 melanoma cells = conditions: read-out: Log10 GI50 (converted)
HOP-18 lung cancer cells = conditions: Homo sapiens, read-out: Log10 GI50 (converted)
[22] = system: NCI-H226 lung cancer cells; conditions: Homo sapiens, read-out: Log10 GI50 (converted)
[23] = system: KM20L2 colon cancer cells; conditions: Homo sapiens, KM-20L2, read-out: Log10 GI50 (converted)
[24] = system: RXF-631 renal cancer cells; conditions: Homo sapiens, read-out: Log10 GI50 (converted)
LOX IMVI melanoma cells = conditions: read-out: Log10 GI50 (converted)
ACHN renal cancer cells = conditions: read-out: Log10 GI50 (converted)
EKVX lung cancer cells = conditions: read-out: Log10 GI50 (converted)
[25] = system: NCI-H522 lung cancer cells; conditions: read-out: Log10 GI50 (converted)
UO-31 renal cancer cells = conditions: read-out: Log10 GI50 (converted)
[26] = system: LXPL-529 lung cancer cells; conditions: Homo sapiens, read-out: Log10 GI50 (converted)
SN12C renal cancer cells = conditions: read-out: Log10 GI50 (converted)
UACC-62 melanoma cells = conditions: Homo sapiens, read-out: Log10 GI50 (converted)
[27] = system: A549/ATCC lung cancer cells; conditions: Homo sapiens, read-out: Log10 GI50 (converted)

| SMILES | GI50 [1] [µM] | GI50 (786-0 renal cancer cells) [µM] | GI50 (UACC-257 melanoma cells) [µM] | GI50 (U251 CNS cancer cells) [µM] | GI50 [7] [µM] | GI50 [8] [µM] | GI50 (SF-268 CNS cancer cells) [µM] | GI50 (MALME-3M melanoma cells) [µM] | GI50 (HT29 colon cancer cells) [µM] | GI50 [10] [µM] | GI50 (A-498 renal cancer cells) [µM] | GI50 (HOP-62 lung cancer cells) [µM] | GI50 [13] [µM] | GI50 (M-14 melanoma cells) [µM] | GI50 [14] [µM] | GI50 [15] [µM] | GI50 [16] [µM] | GI50 [18] [µM] | GI50 (SF-295 CNS cancer cells) [µM] | GI50 (TK-10 renal cancer cells) [µM] | further results |
| --- | --- | --- | --- | --- | --- | --- | --- | --- | --- | --- | --- | --- | --- | --- | --- | --- | --- | --- | --- | --- | --- |
| OCc1ccc(-c2ccc(-c3ccsc3)s2)s1 [drawing 37] | 0.0229 | 57.5 | 0.191 | 10.7 | 20.4 | 16.2 | 53.7 | 38.9 | 13.8 | 0.219 | 0.115 | 20.4 | 24 | 42.7 | 0.417 | 0.158 | 25.1 | 0.977 | 35.5 | 0.204 | GI50 [2]: 0.501 µM; GI50 [3]: 66.1 µM; GI50 (MCF7 breast cancer cells): 0.257 µM; GI50 (SK-MEL-5 melanoma cells): 41.7 µM; GI50 (HOP-92 lung cancer cells): 38.9 µM; GI50 [4]: 51.3 µM; GI50 (KM12 colon cancer cells): 83.2 µM; GI50 (SK-MEL-28 melanoma cells): 36.3 µM; GI50 [5]: 28.2 µM; GI50 [6]: 25.1 µM; GI50 [9]: 0.363 µM; GI50 [11]: 47.9 µM; GI50 [12]: 57.5 µM; GI50 (SNB-19 CNS cancer cells): 33.1 µM; GI50 [17]: 0.339 µM; GI50 (SNB-75 CNS cancer cells): 30.9 µM; GI50 [19]: 58.9 µM; GI50 ([20]; COLO 205, read-out: Log10 GI50 (converted)): 0.912 µM |
| CC(=O)OCc1ccc(-c2ccc(-c3cccs3)s2)s1 | 0.0182 | 18.6 | 0.0933 | < 0.01 | 18.2 | 19.5 | 24.5 | 32.4 | 30.2 | 5.01 | 0.0437 | 24 | 19.5 | 39.8 | 26.3 | 0.0257 | 1.51 | 24.5 | 18.2 | 0.12 | GI50 (DLD-1 colon cancer cells): < 0.01 µM; GI50 [21]: 91.2 µM; GI50 (SK-MEL-2 melanoma cells): 72.4 µM; GI50 (HOP-18 lung cancer cells): 2.34 µM; GI50 [22]: 0.324 µM; GI50 [23]: 0.132 µM; GI50 [24]: < 0.01 µM; GI50 (LOX IMVI melanoma cells): 24 µM; GI50 (ACHN renal cancer cells): 17.8 µM; GI50 (EKVX lung cancer cells): 24.5 µM; GI50 [25]: 13.2 µM; GI50 (UO-31 renal cancer cells): 18.6 µM; GI50 [26]: < 0.01 µM; GI50 (SN12C renal cancer cells): 28.8 µM; GI50 (UACC-62 melanoma cells): 17 µM; GI50 (SNB-75 CNS cancer cells): < 0.01 µM; GI50 [27]: 6.61 µM; GI50 [19]: 50.1 µM; GI50 ([20]; COLO-205, colon cancer, read-out: Log10 GI50 (converted)): 0.437 µM |
